Tests used:
Assay in all cases: Cancer cell growth inhibition, 72 h treatment
Type in all cases: cell-based
A549 = details: Homo sapiens
Procedure: (§1) Cell culture-based assays were used to evaluate the ability of compounds of the invention to inhibit cancer cell growth.
(§2) Cells were obtained from the American Type Culture Collection (ATCC) and the European Collection of Cell Cultures. Cells were thawed in their appropriate media plus supplements (see table below). Cells were passaged at confluence by washing once in HBSS cation-free followed by a 3 minutes incubation with trypsin ([0.5 µg/ml]/EDTA [0.2 µg/ml]) (Gibco-BRL, 15400054) solution in HBSS at 37°C (except non-adherent cell lines - hematologic), and transferred to their appropriate media plus supplements. Prior to seeding at defined cell concentration, cells were recovered in medium, centrifuged, taken up in medium and counted.
(§3) All treatments were performed in triplicate. Experiments were carried out in 96-well cell culture plates (Cultek) and the cell lines seeded at the density mentioned in the table above and cultured at 37°C with 5% CO2. After 24h, media were supplemented by 100 µl/well of diluted test compound at variable final concentrations and incubated for 72 hours. Then, AlamarBlue® Reagent (Biosource DAL1100) was added to each well and incubated at 37°C for 4 hours. Relative fluorescent intensity that correlates with the number of living cells was read in a Cytofluor plate reader (Millipore) at 535/590 nm (Excitation/emission). After reading the AlamarBlue® signal, the hexosaminidase activitity was measured according to the following protocol: medium was removed and cells were washed once with PBS. 60 µl of substrate solution (p-nitrophenol-N-acetyl-beta-D-glucosaminide 7.5 mM [Sigma N-9376], sodium citrate 0.1 M, pH 5.0, 0.25% Triton X-1 00) was added to each well and incubated at 37°C for 1-2 hours; after this incubation time, a bright yellow colour appears; then, plates could be developed by adding 90 µl of developer solution (Glycine 50 mM, pH 10.4; EDTA 5 mM), and absorbance was recorded at 405 nm.
(§4) Note: In all cases assays were performed in Alamar Blue with the exception of those indicated (* = Hexosaminidase assay)

NCI-H1650 = details: Homo sapiens
Procedure: as §1, §2, §3, §4

SW480 = details: Homo sapiens
Procedure: as §1, §2, §3, §4

RPMI-8226 = details: Homo sapiens, Multiple mieloma RPMI-8226, Alamar Blue
Procedure: as §1, §2, §3, §4

LoVo = details: Homo sapiens, Colon cancer LoVo, Alamar Blue
Procedure: as §1, §2, §3, §4

HCT-116 = details: Homo sapiens, Colon cancer HCT-116, Alamar Blue
Procedure: as §1, §2, §3, §4

T47D = details: Homo sapiens, Breast cancer T47D
Procedure: as §1, §2, §3, §4

COLO 205 = details: Homo sapiens
Procedure: as §1, §2, §3, §4

RCC 786-O = details: Homo sapiens, 786-0, Renal RCC 786-O, Alamar Blue
Procedure: as §1, §2, §3, §4

A431 = details: Homo sapiens, A-431, Epidermoid A431, Alamar Blue
Procedure: as §1, §2, §3, §4

NCI-H1975 = details: Homo sapiens
Procedure: as §1, §2, §3, §4

OVCAR-3 = details: Homo sapiens
Procedure: as §1, §2, §3, §4

PC-3 = details: Homo sapiens, Prostate cancer PC-3, Alamar Blue
Procedure: as §1, §2, §3, §4

MDA-MB-231 = details: Homo sapiens, Breast cancer MDA-MB-231, Alamar Blue
Procedure: as §1, §2, §3, §4

HeLa = details: Homo sapiens, Cervical HeLa, Alamar Blue
Procedure: as §1, §2, §3, §4

SK-HEP-1 = details: Homo sapiens, SK-HEP1, Liver cancer SK-HEP-1, Alamar Blue
Procedure: as §1, §2, §3, §4

U-87 MG = details: Homo sapiens, Brain U-87 MG, Hexosaminidase assay (*)
Procedure: as §1, §2, §3, §4

HepG2 = details: Homo sapiens, Liver cancer HepG2, Alamar Blue
Procedure: as §1, §2, §3, §4

MDA-MB-468 = details: Homo sapiens, Breast cancer MDA-MB-468, Alamar Blue
Procedure: as §1, §2, §3, §4

NCI-H358 = details: Homo sapiens, Lung cancer NCI-H358, Alamar Blue
Procedure: as §1, §2, §3, §4

U-373 MG = details: Homo sapiens, U373 MG, Brain U-373 MG
Procedure: as §1, §2, §3, §4

DU-145 = details: Homo sapiens, Prostate cancer DU-145, Alamar Blue
Procedure: as §1, §2, §3, §4

HT-1080 = details: Homo sapiens, Fibrosarcoma HT-1080, Alamar Blue
Procedure: as §1, §2, §3, §4

LS174T = details: Homo sapiens, Colon cancer LS174T, Alamar Blue
Procedure: as §1, §2, §3, §4

K562 = details: Homo sapiens, Hematologic K562, Alamar Blue
Procedure: as §1, §2, §3, §4

LNCaP = details: Homo sapiens, Prostate cancer LNCaP, Alamar Blue
Procedure: as §1, §2, §3, §4

CCRF-CEM = details: Homo sapiens, Hematologic CCRF-CEM, Alamar Blue
Procedure: as §1, §2, §3, §4

HT-29 = details: Homo sapiens, Colon cancer HT-29, Alamar Blue
Procedure: as §1, §2, §3, §4

SK-OV-3 = details: Homo sapiens, Ovarian cancer SK-OV-3, Alamar Blue
Procedure: as §1, §2, §3, §4

143b = details: Homo sapiens, Osteosarcoma 143b, Alamar Blue
Procedure: as §1, §2, §3, §4

BxPC-3 = details: Homo sapiens
Procedure: as §1, §2, §3, §4

[1] = Lung cancer NCI-H1650, Alamar Blue
[2] = Colon cancer SW480, Alamar Blue
[3] = Colon cancer COLO 205, Alamar Blue
[4] = Lung cancer NCI-H1975, Alamar Blue
[5] = Ovarian cancer OVCAR-3, Alamar Blue
[6] = Pancreatic cancer BxPC-3, Alamar Blue

EC50 (RPMI-8226) [µM]	EC50 (LoVo) [µM]	EC50 (HCT-116) [µM]	EC50 (RCC 786-O) [µM]	EC50 (A431) [µM]	EC50 (PC-3) [µM]	EC50 (MDA-MB-231) [µM]	EC50 (HeLa) [µM]	EC50 (SK-HEP-1) [µM]	EC50 (U-87 MG) [µM]	EC50 (HepG2) [µM]	EC50 (MDA-MB-468) [µM]	EC50 (DU-145) [µM]	EC50 (HT-1080) [µM]	EC50 (LS174T) [µM]	EC50 (K562) [µM]	EC50 (LNCaP) [µM]	EC50 (CCRF-CEM) [µM]	EC50 (HT-29) [µM]	EC50 (SK-OV-3) [µM]	SMILES	also measured
0.27	3.09	1.3	1.7	0.97	2.3	2.1	8.3	0.29	4.2	0.38	0.79	1.2	1.7	0.55	2	0.11	0.33	1.5	2.2	CC(C)C[C@H](NC(=O)[C@H]1N[C@@H](c2ccccc2)[C@@H]([N+](=O)[O-])[C@@H]1c1ccccc1)B(O)O [Example 4, (R)-3-methyl-1-((2S,3R,4S,5S)-4-nitro-3,5-diphenylpyrrolidine-2-carboxamido)butylboronic acid]	EC50 (A549; Lung cancer A549, Alamar Blue): 4 µM; EC50 (NCI-H1650; [1]): 0.79 µM; EC50 (SW480; [2]): 0.61 µM; EC50 (T47D; Alamar Blue): 2.1 µM; EC50 (COLO 205; [3]): 3.8 µM; EC50 (NCI-H1975; [4]): 41 µM; EC50 (OVCAR-3; [5]): 0.89 µM; EC50 (NCI-H358): 2.4 µM; EC50 (U-373 MG; Alamar Blue): 7.3 µM; EC50 (143b): 2 µM; EC50 (BxPC-3; [6]): 2.9 µM
0.06	0.66	0.28	1	0.02	0.68	1.1	3.1	0.007	0.89	0.22	0.12	0.57	0.89	0.02	1	0.15	0.052	2.5	0.33	CC(C)C[C@H](NC(=O)[C@@H]1N[C@H](c2ccccc2)[C@@H]([N+](=O)[O-])[C@@H]1c1ccco1)B(O)O [Example 11, (R)-1-((2R,3R,4S,5R)-3-(furan-2-yl)-4-nitro-5-phenylpyrrolidine-2-carboxamido)-3-methylbutylboronic acid]	EC50 (A549; Lung cancer A549, Hexosaminidase assay (*)): 1.3 µM; EC50 (NCI-H1650; Lung cancer NCI-H1650, Hexosaminidase assay (*)): 1.2 µM; EC50 (SW480; Colon cancer SW480, Hexosaminidase assay (*)): 1.1 µM; EC50 (T47D; Alamar Blue): 1.3 µM; EC50 (COLO 205; [3]): 0.202 µM; EC50 (NCI-H1975; Lung cancer NCI-H1975, Hexosaminidase assay (*)): 0.84 µM; EC50 (OVCAR-3; Ovarian cancer OVCAR-3, Hexosaminidase assay (*)): 0.28 µM; EC50 (NCI-H358): 0.28 µM; EC50 (U-373 MG; Hexosaminidase assay (*)): 1.1 µM; EC50 (143b): 0.1 µM; EC50 (BxPC-3; Pancreatic cancer BxPC-3, Hexosaminidase assay (*)): 0.7 µM
0.31	1.7	0.44	2.4	0.41	0.3	3.2	11	0.16	2	0.5	1	0.35	0.46	0.26	2.7	0.12	0.14	0.85	1.4	CC(C)C[C@H](NC(=O)[C@@H]1N[C@H](c2ccc3ccccc3c2)[C@@H]([N+](=O)[O-])[C@@H]1c1ccccc1)B(O)O [Example 12, (R)-3-methyl-1-((2R,3R,4S,5R)-5-(naphthalen-2-yl)-4-nitro-3-phenylpyrrolidine-2-carboxamido)butylboronic acid]	EC50 (A549; Lung cancer A549, Alamar Blue): 5.8 µM; EC50 (NCI-H1650; [1]): 0.37 µM; EC50 (SW480; [2]): 0.56 µM; EC50 (T47D; Hexosaminidase assay (*)): 7.1 µM; EC50 (COLO 205; [3]): 2.4 µM; EC50 (NCI-H1975; [4]): 0.78 µM; EC50 (OVCAR-3; [5]): 0.33 µM; EC50 (U-373 MG; Alamar Blue): 11 µM; EC50 (143b): 0.37 µM; EC50 (BxPC-3; [6]): 0.97 µM
0.15	6.7	1.9	4.7	0.97	1.5	5.1	28	0.49	12	1.4	4.1	1.9	1.7	0.72	6.3	0.39	0.67	3.5	4.1	CC(C)C[C@H](NC(=O)[C@@H]1N[C@H](c2ccccc2)[C@@H]([N+](=O)[O-])[C@@H]1c1ccccc1)B(O)O [Example 1, (R)-3-methyl-1-((2R,3R,4S,5R)-4-nitro-3,5-diphenylpyrrolidine-2-carboxamido)butylboronic acid]	EC50 (A549; Lung cancer A549, Alamar Blue): 7 µM; EC50 (NCI-H1650; [1]): 3.3 µM; EC50 (SW480; [2]): 1.1 µM; EC50 (T47D; Alamar Blue): 10 µM; EC50 (COLO 205; [3]): 11 µM; EC50 (NCI-H1975; [4]): 25 µM; EC50 (OVCAR-3; [5]): 0.74 µM; EC50 (NCI-H358): 0.79 µM; EC50 (U-373 MG; Alamar Blue): 44 µM; EC50 (143b): 5 µM; EC50 (BxPC-3; [6]): 4.6 µM
4.8	15	1.8	19	10	26	18	52	4.2	25	8.1	18	58	8.9	5.9	19	4.2	4.5	12.3	16	CC(C)C[C@H](NC(=O)[C@@H]1CCCN1)B(O)O [MG-319, {(R)-3-methyl-1-[(S)-pyrrolidine-2-carboxamido]butyl}boronic acid, reference compound]	EC50 (NCI-H1650; [1]): 14 µM; EC50 (SW480; [2]): 8.8 µM; EC50 (T47D; Alamar Blue): 25 µM; EC50 (COLO 205; Colon cancer COLO 205, Hexosaminidase assay (*)): 1.9 µM; EC50 (NCI-H1975; [4]): 47 µM; EC50 (OVCAR-3; [5]): 6.9 µM; EC50 (NCI-H358): 24 µM; EC50 (U-373 MG; Alamar Blue): 92 µM; EC50 (143b): 0.98 µM; EC50 (BxPC-3; [6]): 33 µM
